Test results taken from article PMC12217474 (Antimicrobial Agents and Chemotherapy, 2025).
Like-named read-outs stand apart in the source and are kept apart here.

Experiments:
[1] = for ELF AUC0-24 / Plasma AUC0-24: steady state, healthy subjects, Study I6424-108a, N = 20
Source text: By fixing the plasma PK parameters to the individual post hoc values, it was possible to predict ELF concentrations using a biophase model with unidirectional first-order transfer from the central compartment to ELF (k13) and first-order elimination from the ELF compartment (k30). In order to allow for the estimation of IIV in k30, since only one ELF measurement was collected per subject, the residual variability of ELF data was fixed to be equal to that previously estimated for the plasma PK data in healthy subjects from Phases 1 and 4 studies. […] In this simulation, the parameter estimates from the modified final population PK model were utilized along with the mean (standard deviation) of the subject covariate effects in the model, such as age and body weight from healthy subjects in Study I6424-108a.

[2] = clinical; details: human, iv, 10 mg/kg; for Kp uu: epithelial lining fluid (ELF) / plasma; for Kp: epithelial lining fluid (ELF) versus total-drug plasma, ELF penetration ratio (total drug)
[3] = cited from earlier work
[4] = final population PK model, final estimate

CCCCCCCCCCNCCN[C@@]1(C)C[C@H](O[C@H]2[C@H](Oc3c4cc5cc3Oc3ccc(cc3Cl)[C@@H](O)[C@@H](NC(=O)[C@@H](CC(C)C)NC)C(=O)N[C@@H](CC(N)=O)C(=O)N[C@H]5C(=O)N[C@H]3C(=O)N[C@H](C(=O)N[C@H](C(=O)O)c5cc(O)c(CNCP(=O)(O)O)c(O)c5-c5cc3ccc5O)[C@H](O)c3ccc(c(Cl)c3)O4)O[C@H](CO)[C@@H](O)[C@@H]2O)O[C@@H](C)[C@H]1O [telavancin]
CLDL (dialysis clearance) (bootstrap (N = 200), mean): 1.79 L/h | CLR, max (maximum renal clearance) (bootstrap (N = 200), mean): 1.04 L/h | CLd coefficient (distributional clearance between central and peripheral compartments) (bootstrap (N = 200), mean): 3.78 L/h | Vc-TBW power (bootstrap (N = 200), mean): 0.438 | Vc-age power (bootstrap (N = 200), mean): 0.184 | Vc-increase for CKD5 subjects after >48 hours has elapsed between IHD sessions (bootstrap (N = 200), mean): 1.57 L | Vc-proportional increase for bacteremia/HABP/VABP patients (bootstrap (N = 200), mean): 0.600 | Vc-proportional increase for cSSSI patients (bootstrap (N = 200), mean): 0.299 | Vc-proportional increase for females (bootstrap (N = 200), mean): −0.0583 | Vp-BMI power (bootstrap (N = 200), mean): −0.325 | Vp-TBW power (bootstrap (N = 200), mean): 0.971 | Vp-age power (bootstrap (N = 200), mean): 0.289 | Vp-proportional increase for bacteremia/HABP/VABP patients (bootstrap (N = 200), mean): 0.288 | Vp-proportional increase for cSSSI patients (bootstrap (N = 200), mean): 0.127 | CLDL (dialysis clearance) (bootstrap (N = 200), median): 1.77 L/h | CLR, max (maximum renal clearance) (bootstrap (N = 200), median): 1.04 L/h | CLd coefficient (distributional clearance between central and peripheral compartments) (bootstrap (N = 200), median): 3.75 L/h | Vc-TBW power (bootstrap (N = 200), median): 0.442 | Vc-age power (bootstrap (N = 200), median): 0.183 | Vc-increase for CKD5 subjects after >48 hours has elapsed between IHD sessions (bootstrap (N = 200), median): 1.56 L | Vc-proportional increase for bacteremia/HABP/VABP patients (bootstrap (N = 200), median): 0.599 | Vc-proportional increase for cSSSI patients (bootstrap (N = 200), median): 0.300 | Vc-proportional increase for females (bootstrap (N = 200), median): −0.0577 | Vp-BMI power (bootstrap (N = 200), median): −0.317 | Vp-TBW power (bootstrap (N = 200), median): 0.969 | Vp-age power (bootstrap (N = 200), median): 0.289 | Vp-proportional increase for bacteremia/HABP/VABP patients (bootstrap (N = 200), median): 0.295 | Vp-proportional increase for cSSSI patients (bootstrap (N = 200), median): 0.125 | CLNR (non-renal clearance) (bootstrap of final population PK model (N = 200), mean): 0.399 L/h | CLNR (non-renal clearance) (bootstrap of final population PK model (N = 200), median): 0.402 L/h | Vc-TBW power [4]: 0.469 | Vc-age power [4]: 0.188 | Vc-proportional increase for bacteremia/HABP/VABP patients [4]: 0.578 | Vc-proportional increase for cSSSI patients [4]: 0.313 | Vc-proportional increase for females [4]: −0.0584 | Vp-BMI power [4]: −0.308 | Vp-TBW power [4]: 0.976 | Vp-age power [4]: 0.272 | Vp-proportional increase for bacteremia/HABP/VABP patients [4]: 0.329 | Vp-proportional increase for cSSSI patients [4]: 0.118 | CLR, max (maximum renal clearance) (final population PK model, final estimate, Hill-type CLR-CLcr relationship, N = 1,205): 1.04 L/h | CLd coefficient (distributional clearance between central and peripheral compartments) (final population PK model, final estimate, N = 1,205): 3.73 L/h | Vc-increase for CKD5 subjects after >48 hours has elapsed between IHD sessions (final population PK model, final estimate, additive increase): 1.55 L | CLDL (dialysis clearance) (final population PK model, final estimate, during active intermittent hemodialysis, eight CKD5 subjects): 1.77 L/h | CLNR (non-renal clearance) (final population PK model, final estimate, plasma, IV, healthy subjects and patients, N = 1,205): 0.407 L/h | k30 (first-order elimination from the ELF compartment) ([1]; ELF population PK model, final estimate, 18 healthy subjects): 0.154 h⁻¹ | ELF AUC0-24 ([1]; 10 mg/kg IV q24h, urea-corrected BAL, mean (SD), SD): 54.5 (16.1) mg·hour/L | ELF AUC0-24 ([1]; 10 mg/kg IV q24h, maximum): 99.0 mg·h/L | Plasma AUC0-24 ([1]; 10 mg/kg IV q24h, maximum): 954 mg·h/L | ELF AUC0-24 ([1]; 10 mg/kg IV q24h, median): 50.6 mg·h/L | Plasma AUC0-24 ([1]; 10 mg/kg IV q24h, median): 757 mg·h/L | ELF AUC0-24 ([1]; 10 mg/kg IV q24h, minimum): 38.3 mg·h/L | Plasma AUC0-24 ([1]; 10 mg/kg IV q24h, minimum): 570 mg·h/L | Plasma AUC0-24 ([1]; 10 mg/kg IV q24h for 3 days, mean (SD), SD): 750 (103) mg·hour/L | Kp uu ([2]; ELF penetration ratio (free drug), ELF AUC0-24/(0.1 total-drug plasma AUC0-24), median, N = 20): 0.683 | Kp uu ([2]; SD): 0.73 | Kp ([2]; ELF AUC0-24/total-drug plasma AUC0-24, healthy subjects, Study I6424-108a, mean (SD), N = 20, SD): 0.073 | Kp ([2]; ELF AUC0-24/total-drug plasma AUC0-24, median, N = 20): 0.0683

dalbavancin
reported ELF penetration [3]: 36%

oritavancin
reported ELF penetration ratio ([3]; in vivo): 459%

vancomycin
ELF penetration ([3]; healthy volunteers with outliers removed): 41%–56
